Test results as given in patent US8512694B2, “Method of producing rough strains of bacteria and uses thereof” (priority 2005, dated 2013).
“Also recorded” adds a separate entry of the source.

Test system: Mycobacterium obuense type strain ATCC 27023
Assay: Growth of Mycobacterium obuense on Middlebrook 7H11 medium with different Dapsone concentrations
Description: Mycobacterium obuense type strain ATCC 27023 was grown Middlebrook 7H11 medium comprising different concentrations of Dapsone™.

In the case of `Nc1ccc(S(=O)(=O)c2ccc(N)cc2)cc1` [Dapsone ™, 4,4′-Diaminodiphenyl sulfone], the Observed growth (Experiment 2 part a, 5 μg Dapsone/ml Middlebrook 7H11 medium) is reported as 3 smooth colonies, the Observed growth (Experiment 2 part a, 10 μg Dapsone/ml Middlebrook 7H11 medium) is reported as “no growth” and the Observed growth (Experiment 2 part a, 20 μg Dapsone/ml Middlebrook 7H11 medium) is reported as “no growth”. For the same molecule, the Observed growth (Experiment 2 part a, 40 μg Dapsone/ml Middlebrook 7H11 medium) was “no growth”, the Observed growth (Experiment 2 part a, 50 μg Dapsone/ml Middlebrook 7H11 medium) was “no growth” and the Observed growth (Experiment 2 part b, 3 μg Dapsone/ml Middlebrook 7H11 medium) was “confluent smooth colonies”. The Observed growth (Experiment 2 part b, 4 μg Dapsone/ml Middlebrook 7H11 medium) was “small smooth colonies”, the Observed growth (Experiment 2 part b, 5 μg Dapsone/ml Middlebrook 7H11 medium) was “small smooth colonies” and the Observed growth (Experiment 2 part c, 5 μg Dapsone/ml Middlebrook 7H11 medium) was “few rough colonies,; also recorded: mostly smooth colonies”. For the same molecule, the Observed growth (Experiment 2 part c, 7.5 μg Dapsone/ml Middlebrook 7H11 medium) was “few rough colonies,; also recorded: mostly smooth colonies”, the Observed growth (Experiment 2 part c, 10 μg Dapsone/ml Middlebrook 7H11 medium) was “mostly rough colonies” and the Observed growth (Experiment 2 part c, 12 μg Dapsone/ml Middlebrook 7H11 medium) was “mostly rough colonies”.
